28 compounds from ChEMBL document CHEMBL5608189, “Design and synthesis of unique indole-benzosulfonamide oleanolic acid derivatives as potent antibacterial agents against MRSA” (Eur J Med Chem, 2024) can be followed below.

Common to all, as to type: functional
Experiment [1] has as its system Staphylococcus aureus. In words: Antibacterial activity against methicillin-resistant Staphylococcus aureus measured after 24 hrs by susceptibility assay.
Experiment [2] concerns Staphylococcus epidermidis. In words: Antibacterial activity against Staphylococcus epidermidis ATCC 12228 measured after 24 hrs by susceptibility assay.
Experiment [3] deals with Staphylococcus aureus. As to the kind of experiment: Antibacterial activity against Staphylococcus aureus ATCC 6538 measured after 24 hrs by susceptibility assay.
Experiment [4] concerns Staphylococcus aureus. In words: Antibacterial activity against Staphylococcus aureus ATCC 29213 measured after 24 hrs by susceptibility assay.

In brackets after ≈: the same amount, converted by molar mass. Bounds are passed on as bounds.

In the case of `CC1(C)CC[C@]2(C(=O)NS(=O)(=O)c3ccc(C(=O)O)cc3)CC[C@]3(C)C(=CC[C@@H]4[C@@]5(C)Cc6c([nH]c7c(C(=O)O)cccc67)C(C)(C)[C@@H]5CC[C@]43C)[C@@H]2C1`, the minimal inhibitory concentration (MIC) (as a rule, the least concentration at which growth counts as inhibited) in experiment [1] came to 1 µM (≈ 0.755 µg/mL); in experiment [2] it was 1 µM (≈ 0.755 µg/mL); in experiment [3] it was 0.5 µM (≈ 0.377 µg/mL); in experiment [4] it was 2 µM (≈ 1.51 µg/mL).
Turning to `CC1(C)CC[C@]2(C(=O)NS(=O)(=O)c3ccccc3)CC[C@]3(C)C(=CC[C@@H]4[C@@]5(C)Cc6c([nH]c7ccc(Br)cc67)C(C)(C)[C@@H]5CC[C@]43C)[C@@H]2C1`, the minimal inhibitory concentration (MIC) in experiment [1], in experiment [2], in experiment [3] and in experiment [4] was above 256 µM in each case.
With `COc1ccc(S(=O)(=O)NC(=O)[C@]23CCC(C)(C)C[C@H]2C2=CC[C@@H]4[C@@]5(C)Cc6c([nH]c7ccc(C(=O)O)cc67)C(C)(C)[C@@H]5CC[C@@]4(C)[C@]2(C)CC3)cc1`, the MIC came out at 2 µM (≈ 1.48 µg/mL) in experiment [1], 2 µM (≈ 1.48 µg/mL) in experiment [2], 0.5 µM (≈ 0.371 µg/mL) in experiment [3] and 2 µM (≈ 1.48 µg/mL) in experiment [4].
For the compound `COc1ccc(S(=O)(=O)NC(=O)[C@]23CCC(C)(C)C[C@H]2C2=CC[C@@H]4[C@@]5(C)Cc6c([nH]c7cc(C(=O)O)ccc67)C(C)(C)[C@@H]5CC[C@@]4(C)[C@]2(C)CC3)cc1`, the MIC was 4 µM (≈ 2.96 µg/mL) in experiment [1], 2 µM (≈ 1.48 µg/mL) in experiment [2], 1 µM (≈ 0.741 µg/mL) in experiment [3] and 4 µM (≈ 2.96 µg/mL) in experiment [4].
On to `Cc1ccc(S(=O)(=O)NC(=O)[C@]23CCC(C)(C)C[C@H]2C2=CC[C@@H]4[C@@]5(C)Cc6c([nH]c7cc(C(=O)O)ccc67)C(C)(C)[C@@H]5CC[C@@]4(C)[C@]2(C)CC3)cc1`, for which the MIC in experiment [1] is 2 µM (≈ 1.45 µg/mL); in experiment [2] it was 1 µM (≈ 0.725 µg/mL); in experiment [3], 1 µM (≈ 0.725 µg/mL); in experiment [4], 2 µM (≈ 1.45 µg/mL).
As to `Cc1ccc(S(=O)(=O)NC(=O)[C@]23CCC(C)(C)C[C@H]2C2=CC[C@@H]4[C@@]5(C)Cc6c([nH]c7cccc(C(=O)O)c67)C(C)(C)[C@@H]5CC[C@@]4(C)[C@]2(C)CC3)cc1`, the MIC was 4 µM (≈ 2.9 µg/mL) in experiment [1], 4 µM (≈ 2.9 µg/mL) in experiment [2], 1 µM (≈ 0.725 µg/mL) in experiment [3] and 4 µM (≈ 2.9 µg/mL) in experiment [4].
Regarding `CC1(C)CC[C@]2(C(=O)NS(=O)(=O)c3ccc(Cl)cc3)CC[C@]3(C)C(=CC[C@@H]4[C@@]5(C)Cc6c([nH]c7cc(C(=O)O)ccc67)C(C)(C)[C@@H]5CC[C@]43C)[C@@H]2C1`, the MIC in experiment [1] stood at 2 µM (≈ 1.49 µg/mL); in experiment [2] it was 1 µM (≈ 0.745 µg/mL); in experiment [3], 0.5 µM (≈ 0.373 µg/mL); in experiment [4], 2 µM (≈ 1.49 µg/mL).
Turning to `CC1(C)CC[C@]2(C(=O)Nc3ccc(-c4ccccc4)cc3)CC[C@]3(C)C(=CC[C@@H]4[C@@]5(C)Cc6c([nH]c7cc(C(=O)O)ccc67)C(C)(C)[C@@H]5CC[C@]43C)[C@@H]2C1`, the MIC in experiment [1], in experiment [2], in experiment [3] and in experiment [4] was above 256 µM each time.
On to `CN1CCN(C(=O)[C@]23CCC(C)(C)C[C@H]2C2=CC[C@@H]4[C@@]5(C)Cc6c([nH]c7ccc(C(=O)O)cc67)C(C)(C)[C@@H]5CC[C@@]4(C)[C@]2(C)CC3)CC1`, for which the minimum inhibitory concentration (MIC) in experiment [1], in experiment [2], in experiment [3] and in experiment [4] was above 256 µM in each case.
Take `CC1(C)CC[C@]2(C(=O)NS(=O)(=O)c3ccc(C(=O)O)cc3)CC[C@]3(C)C(=CC[C@@H]4[C@@]5(C)Cc6c([nH]c7cc(C(=O)O)ccc67)C(C)(C)[C@@H]5CC[C@]43C)[C@@H]2C1`: the MIC in experiment [1] is 2 µM (≈ 1.51 µg/mL); in experiment [2], 4 µM (≈ 3.02 µg/mL); in experiment [3] it was 1 µM (≈ 0.755 µg/mL); in experiment [4] it was 2 µM (≈ 1.51 µg/mL).
With `COc1cccc(OC)c1C(=O)N[C@@H]1C(=O)N2[C@@H]1SC(C)(C)[C@@H]2C(=O)O` [METHICILLIN], the MIC was 256 µM (≈ 97.4 µg/mL) in experiment [1], 2 µM (≈ 0.761 µg/mL) in experiment [2], 4 µM (≈ 1.52 µg/mL) in experiment [3] and 2 µM (≈ 0.761 µg/mL) in experiment [4].
As for `COc1ccc(S(=O)(=O)NC(=O)[C@]23CCC(C)(C)C[C@H]2C2=CC[C@@H]4[C@@]5(C)CCC(=O)C(C)(C)[C@@H]5CC[C@@]4(C)[C@]2(C)CC3)cc1`, the MIC in experiment [1], in experiment [2], in experiment [3] and in experiment [4] was above 256 µM each time.
Consider `CN[C@H](CC(C)C)C(=O)N[C@H]1C(=O)N[C@@H](CC(N)=O)C(=O)N[C@H]2C(=O)N[C@H]3C(=O)N[C@H](C(=O)N[C@H](C(=O)O)c4cc(O)cc(O)c4-c4cc3ccc4O)[C@H](O)c3ccc(c(Cl)c3)Oc3cc2cc(c3O[C@@H]2O[C@H](CO)[C@@H](O)[C@H](O)[C@H]2O[C@H]2C[C@](C)(N)[C@H](O)[C@H](C)O2)Oc2ccc(cc2Cl)[C@H]1O` [VANCOMYCIN], for which the MIC in experiment [1], in experiment [2], in experiment [3] and in experiment [4] was 0.5 µM (≈ 0.725 µg/mL) throughout.
For the compound `CC1(C)CC[C@]2(C(=O)NS(=O)(=O)c3ccc(C(=O)O)cc3)CC[C@]3(C)C(=CC[C@@H]4[C@@]5(C)Cc6c([nH]c7ccc(C(=O)O)cc67)C(C)(C)[C@@H]5CC[C@]43C)[C@@H]2C1`, the MIC in experiment [1], in experiment [2], in experiment [3] and in experiment [4] was 64 µM (≈ 48.3 µg/mL) in each case.
On to `CC1(C)CC[C@]2(C(=O)NS(=O)(=O)c3ccccc3)CC[C@]3(C)C(=CC[C@@H]4[C@@]5(C)CCC(=O)C(C)(C)[C@@H]5CC[C@]43C)[C@@H]2C1`, for which the minimum inhibitory concentration (MIC) was above 256 µM in experiment [1], above 256 µM in experiment [2], 128 µM (≈ 76 µg/mL) in experiment [3] and above 256 µM in experiment [4].
For `CC1(C)CC[C@]2(C(=O)NS(=O)(=O)c3ccc(C(=O)O)cc3)CC[C@]3(C)C(=CC[C@@H]4[C@@]5(C)CCC(=O)C(C)(C)[C@@H]5CC[C@]43C)[C@@H]2C1`, the minimum inhibitory concentration (MIC) in experiment [1] turned out to be 256 µM (≈ 163 µg/mL); in experiment [2], 256 µM (≈ 163 µg/mL); in experiment [3], 64 µM (≈ 40.8 µg/mL); in experiment [4] it was 128 µM (≈ 81.6 µg/mL).
On to `CC1(C)CC[C@]2(C(=O)NS(=O)(=O)c3ccccc3)CC[C@]3(C)C(=CC[C@@H]4[C@@]5(C)Cc6c([nH]c7ccc(C(=O)O)cc67)C(C)(C)[C@@H]5CC[C@]43C)[C@@H]2C1`, for which the MIC is 1 µM (≈ 0.711 µg/mL) in experiment [1], 2 µM (≈ 1.42 µg/mL) in experiment [2], 1 µM (≈ 0.711 µg/mL) in experiment [3] and 2 µM (≈ 1.42 µg/mL) in experiment [4].
Consider `CC(=O)c1ccc2c3c([nH]c2c1)C(C)(C)[C@@H]1CC[C@]2(C)[C@H](CC=C4[C@@H]5CC(C)(C)CC[C@]5(C(=O)NS(=O)(=O)c5ccccc5)CC[C@]42C)[C@@]1(C)C3`, for which the MIC in experiment [1] was found to be 2 µM (≈ 1.42 µg/mL); in experiment [2], 2 µM (≈ 1.42 µg/mL); in experiment [3] it was 1 µM (≈ 0.709 µg/mL); in experiment [4], 2 µM (≈ 1.42 µg/mL).
On to `CC(=O)c1cccc2[nH]c3c(c12)C[C@]1(C)[C@H]2CC=C4[C@@H]5CC(C)(C)CC[C@]5(C(=O)NS(=O)(=O)c5ccccc5)CC[C@@]4(C)[C@]2(C)CC[C@H]1C3(C)C`, for which the MIC in experiment [1] is 4 µM (≈ 2.84 µg/mL); in experiment [2], 2 µM (≈ 1.42 µg/mL); in experiment [3] it was 4 µM (≈ 2.84 µg/mL); in experiment [4], 4 µM (≈ 2.84 µg/mL).
In the case of `CN1CCN(C(=O)[C@]23CCC(C)(C)C[C@H]2C2=CC[C@@H]4[C@@]5(C)Cc6c([nH]c7cccc(C(=O)O)c67)C(C)(C)[C@@H]5CC[C@@]4(C)[C@]2(C)CC3)CC1`, the minimum inhibitory concentration (MIC) in experiment [1], in experiment [2], in experiment [3] and in experiment [4] was above 256 µM in each case.
For the compound `CC1(C)CC[C@]2(C(=O)NS(=O)(=O)c3ccccc3)CC[C@]3(C)C(=CC[C@@H]4[C@@]5(C)Cc6c([nH]c7ccccc67)C(C)(C)[C@@H]5CC[C@]43C)[C@@H]2C1`, the MIC in experiment [1], in experiment [2], in experiment [3] and in experiment [4] was above 256 µM each time.
In the case of `CC1(C)CC[C@]2(C(=O)NS(=O)(=O)c3ccc(Cl)cc3)CC[C@]3(C)C(=CC[C@@H]4[C@@]5(C)CCC(=O)C(C)(C)[C@@H]5CC[C@]43C)[C@@H]2C1`, the MIC in experiment [1] is 32 µM (≈ 20.1 µg/mL); in experiment [2], 4 µM (≈ 2.51 µg/mL); in experiment [3] it was 4 µM (≈ 2.51 µg/mL); in experiment [4] it was 8 µM (≈ 5.03 µg/mL).
Take `CC1(C)CC[C@]2(C(=O)Nc3ccc(-c4ccccc4)cc3)CC[C@]3(C)C(=CC[C@@H]4[C@@]5(C)Cc6c([nH]c7c(C(=O)O)cccc67)C(C)(C)[C@@H]5CC[C@]43C)[C@@H]2C1`: the minimum inhibitory concentration (MIC) in experiment [1], in experiment [2], in experiment [3] and in experiment [4] was above 256 µM throughout.
Regarding `CC1(C)CC[C@]2(C(=O)NS(=O)(=O)c3ccccc3)CC[C@]3(C)C(=CC[C@@H]4[C@@]5(C)Cc6c([nH]c7ccc(Cl)cc67)C(C)(C)[C@@H]5CC[C@]43C)[C@@H]2C1`, the minimum inhibitory concentration (MIC) in experiment [1], in experiment [2], in experiment [3] and in experiment [4] was above 256 µM in each case.
For the compound `COc1ccc(S(=O)(=O)NC(=O)[C@]23CCC(C)(C)C[C@H]2C2=CC[C@@H]4[C@@]5(C)Cc6c([nH]c7cccc(C(=O)O)c67)C(C)(C)[C@@H]5CC[C@@]4(C)[C@]2(C)CC3)cc1`, the MIC worked out at 4 µM (≈ 2.96 µg/mL) in experiment [1], 4 µM (≈ 2.96 µg/mL) in experiment [2], 2 µM (≈ 1.48 µg/mL) in experiment [3] and 8 µM (≈ 5.93 µg/mL) in experiment [4].
For the compound `CC1(C)CC[C@]2(C(=O)NS(=O)(=O)c3ccc(Cl)cc3)CC[C@]3(C)C(=CC[C@@H]4[C@@]5(C)Cc6c([nH]c7ccc(C(=O)O)cc67)C(C)(C)[C@@H]5CC[C@]43C)[C@@H]2C1`, the minimum inhibitory concentration (MIC) was 1 µM (≈ 0.745 µg/mL) in experiment [1], 1 µM (≈ 0.745 µg/mL) in experiment [2], 0.5 µM (≈ 0.373 µg/mL) in experiment [3] and 1 µM (≈ 0.745 µg/mL) in experiment [4].
For the compound `CN1CCN(C(=O)[C@]23CCC(C)(C)C[C@H]2C2=CC[C@@H]4[C@@]5(C)Cc6c([nH]c7c(C(=O)O)cccc67)C(C)(C)[C@@H]5CC[C@@]4(C)[C@]2(C)CC3)CC1`, the MIC in experiment [1] is above 256 µM; in experiment [2], 128 µM (≈ 83.7 µg/mL); in experiment [3], above 256 µM; in experiment [4], above 256 µM.
`CN1CCN(C(=O)[C@]23CCC(C)(C)C[C@H]2C2=CC[C@@H]4[C@@]5(C)Cc6c([nH]c7cc(C(=O)O)ccc67)C(C)(C)[C@@H]5CC[C@@]4(C)[C@]2(C)CC3)CC1`: the MIC in experiment [1] is 256 µM (≈ 167 µg/mL); in experiment [2], 64 µM (≈ 41.9 µg/mL); in experiment [3], above 256 µM; in experiment [4], above 256 µM.
